Results published in publication PMC13192270, “RhlR quorum-sensing receptor ligand sensitivity regulates the differential expression of phenazine genes in Pseudomonas aeruginosa” (Journal of Bacteriology, 2026).
Substitutions are numbered along the chain they refer to.

Tests used:
[1] = molecular target: T1, RhlR T58L in ΔrhlI strain (Pseudomonas aeruginosa, UniProt P54292, T58L); assay: ChIP-seq of RhlR-binding sites; type: cell-based; settings: 2 µM C4HSL
T1 construct: expressed in transfected cells; host or cells: P. aeruginosa UCBPP-PA14 ΔrhlI, mutant allele placed on the chromosome at the native rhlR locus
T1 sequence (P54292 1-241 T58L): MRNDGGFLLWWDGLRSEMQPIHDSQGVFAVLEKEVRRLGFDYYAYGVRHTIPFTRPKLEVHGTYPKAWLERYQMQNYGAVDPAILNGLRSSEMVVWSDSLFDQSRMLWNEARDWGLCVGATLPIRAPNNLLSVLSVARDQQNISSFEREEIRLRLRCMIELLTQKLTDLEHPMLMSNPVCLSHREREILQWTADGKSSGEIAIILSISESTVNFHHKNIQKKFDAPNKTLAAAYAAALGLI
Description: To determine the molecular basis for lower levels of phz gene expression in a background that expressed a hypersensitive variant of RhlR, we assessed expression of the pqsABCDE operon ([51]). PqsE is required for optimal expression of the phz genes and, thus, pyocyanin production. RhlR was previously characterized as a repressor of the pqsABCDE operon. We hypothesized that a C4HSL hypersensitive variant would repress pqsABCDE expression, which could lead to the observed decrease in phz gene expression. Indeed, pqsA RNA levels were 20% lower in a strain expressing RhlR T58L compared to WT RhlR (Fig. 6A; Table 2). To confirm that the decrease in gene expression led to a decrease in the available PqsE protein that was capable of interacting with RhlR to specifically drive it to the phz promoter, we performed western blot analyses to measure PqsE protein levels in strains expressing RhlR variants (Fig. 7A). […] Thus, we hypothesized that when PqsE levels fall below a certain concentration, PqsE homodimerization cannot occur, thereby preventing PqsE-RhlR complex formation and reducing promoter occupancy. […] We highlight phzA1 and phzM, which share a promoter (Fig. S10A), rhlA (Fig. S10B), and lecB (Fig. S10C) because of the role of the phz and rhlA promoters in regulating pyocyanin and rhamnolipid production (Fig. 5) and because lecB is a well-characterized PqsE-dependent promoter ([37]). As expected, RhlR T58L had lower promoter occupancy than WT RhlR at the phzA1 promoter, likely due to the lower levels of PqsE present (Fig. 7B; Fig. S10A). Conversely, RhlR occupancy at the rhlA promoter was nearly unchanged from WT RhlR (Fig. 7B; Fig. S10B), reflecting the ability of RhlR to bind the promoter primarily through its dependency on C4HSL.
(§1) P. aeruginosa strains were grown overnight, back diluted 1:100 in fresh LB media, and grown to an OD600 = 2.0. Crosslinking, lysis, and immunoprecipitation were performed as previously described ([37]).

[2] = molecular target: T2, RhlR A44M in ΔrhlI strain (Pseudomonas aeruginosa, UniProt P54292, A44M); assay: ChIP-seq of RhlR-binding sites; type: cell-based; settings: 2 µM C4HSL
T2 construct: expressed in transfected cells; host or cells: P. aeruginosa UCBPP-PA14 ΔrhlI, mutant allele placed on the chromosome at the native rhlR locus
T2 sequence (P54292 1-241 A44M): T1 sequence (P54292 1-241 T58L) with A44M, L58T
Method: as §1

## CCCC(=O)N[C@H]1CCOC1=O [C4HSL, N-butyryl-L-homoserine lactone]
[1]
  ChIP-seq enrichment at PA14_01490 (rahU) (peak 139,733): 1,262.3
  ChIP-seq enrichment at PA14_06320 (peak 560,072): 896.4
  ChIP-seq enrichment at PA14_10360 (peak 895,433): 513.5
  ChIP-seq enrichment at PA14_16100*, PA14_16110 (peak 1,372,370): 1,439.9
  ChIP-seq enrichment at PA14_18800 (peak 1,620,628): 405.8
  ChIP-seq enrichment at PA14_18810 operon (peak 1,621,028): 87.2
  ChIP-seq enrichment at PA14_20130, PA14_20140 (fpr) (peak 1,735,823): 380.5
  ChIP-seq enrichment at PA14_21020 (azeB) operon, PA14_21030 (peak 1,816,906): 3,188.5
  ChIP-seq enrichment at PA14_22090 (peak 1,921,598): 349.8
  ChIP-seq enrichment at PA14_28250*, PA14_28260 (peak 2,444,398): 159.5
  ChIP-seq enrichment at PA14_29620, fhp operon (peak 2,568,048): 2,263.3
  ChIP-seq enrichment at PA14_30570, PA14_30580 (vqsR) (peak 2,647,472): 554.8
  ChIP-seq enrichment at PA14_30840* (peak 2,677,542): 4,222.3
  ChIP-seq enrichment at PA14_37745 operon (peak 3,364,761): 433.4
  ChIP-seq enrichment at PA14_48140 operon (peak 4,285,523): 340.9
  ChIP-seq enrichment at PA14_48530 operon (peak 4,313,855): 867.6
  ChIP-seq enrichment at PA14_49310 (peak 4,382,169): 673.4
  ChIP-seq enrichment at PA14_49740, PA14_49750 operon (peak 4,425,570): 2,142.3
  ChIP-seq enrichment at PA14_57970*, PA14_57980 (peak 5,159,548): 228.8
  ChIP-seq enrichment at PA14_59180* (peak 5,268,881): 216.4
  ChIP-seq enrichment at PA_48530* (peak 4,314,560): 229
  ChIP-seq enrichment at arcD operon (peak 6,093,032): 900.8
  ChIP-seq enrichment at hcnA operon, exoY (peak 3,236,436): 1,543.7
  ChIP-seq enrichment at hsiA2 operon, hcpD (peak 3,831,541): 1,100.7
  ChIP-seq enrichment at lasA (peak 3,600,666): 211.7
  ChIP-seq enrichment at lasB (peak 1,387,361): 347.7
  ChIP-seq enrichment at lecB, PA14_20620 operon (peak 1,774,336): 13,604.8
  ChIP-seq enrichment at pa1L (peak 2,721,761): 171.4
  ChIP-seq enrichment at peak 5,414,219: 697
  ChIP-seq enrichment at phzA1 operon, phzM (peak 813,529): 2,515.8
  ChIP-seq enrichment at phzA2 operon (peak 3,561,969): 562.6
  ChIP-seq enrichment at phzB1*, phzC1 (peak 812,427): 968.1
  ChIP-seq enrichment at phzB2*, phzC2 (peak 3,561,157): 75.06
  ChIP-seq enrichment at phzH (peak 64,211): 800.4
  ChIP-seq enrichment at rhlA operon (peak 1,648,391): 3,584.5
  ChIP-seq enrichment at rhlI (peak 1,651,804): 263.1
  ChIP-seq enrichment at rmlB operon (peak 6,082,366): 2,634
  ChIP-seq enrichment at rpsL operon (peak 754,615): 416.1
  ChIP-seq enrichment at tnpS, tnpT operon (peak 3,188,223): 237.1
[2]
  ChIP-seq enrichment at PA14_01490 (rahU) (peak 139,733): 36.29
  ChIP-seq enrichment at PA14_06320 (peak 560,072): 207.8
  ChIP-seq enrichment at PA14_10360 (peak 895,433): 557.9
  ChIP-seq enrichment at PA14_16100*, PA14_16110 (peak 1,372,370): 41.27
  ChIP-seq enrichment at PA14_18800 (peak 1,620,628): 459
  ChIP-seq enrichment at PA14_18810 operon (peak 1,621,028): 216.7
  ChIP-seq enrichment at PA14_20130, PA14_20140 (fpr) (peak 1,735,823): 187.2
  ChIP-seq enrichment at PA14_21020 (azeB) operon, PA14_21030 (peak 1,816,906): 2,385.1
  ChIP-seq enrichment at PA14_22090 (peak 1,921,598): 403.3
  ChIP-seq enrichment at PA14_28250*, PA14_28260 (peak 2,444,398): 18.9
  ChIP-seq enrichment at PA14_29620, fhp operon (peak 2,568,048): 698.1
  ChIP-seq enrichment at PA14_30570, PA14_30580 (vqsR) (peak 2,647,472): 454.9
  ChIP-seq enrichment at PA14_30840* (peak 2,677,542): 631.2
  ChIP-seq enrichment at PA14_37745 operon (peak 3,364,761): 0
  ChIP-seq enrichment at PA14_48140 operon (peak 4,285,523): 89.06
  ChIP-seq enrichment at PA14_48530 operon (peak 4,313,855): 870.2
  ChIP-seq enrichment at PA14_49310 (peak 4,382,169): 273.4
  ChIP-seq enrichment at PA14_49740, PA14_49750 operon (peak 4,425,570): 518.7
  ChIP-seq enrichment at PA14_57970*, PA14_57980 (peak 5,159,548): 16.73
  ChIP-seq enrichment at PA14_59180* (peak 5,268,881): 320.1
  ChIP-seq enrichment at PA_48530* (peak 4,314,560): 476.8
  ChIP-seq enrichment at arcD operon (peak 6,093,032): 97.46
  ChIP-seq enrichment at hcnA operon, exoY (peak 3,236,436): 998.8
  ChIP-seq enrichment at hsiA2 operon, hcpD (peak 3,831,541): 840.8
  ChIP-seq enrichment at lasA (peak 3,600,666): 0
  ChIP-seq enrichment at lasB (peak 1,387,361): 155.1
  ChIP-seq enrichment at lecB, PA14_20620 operon (peak 1,774,336): 3,659.5
  ChIP-seq enrichment at pa1L (peak 2,721,761): 431.4
  ChIP-seq enrichment at peak 5,414,219: 86.36
  ChIP-seq enrichment at phzA1 operon, phzM (peak 813,529): 1,47.87
  ChIP-seq enrichment at phzA2 operon (peak 3,561,969): 134.6
  ChIP-seq enrichment at phzB1*, phzC1 (peak 812,427): 872.5
  ChIP-seq enrichment at phzB2*, phzC2 (peak 3,561,157): 241.2
  ChIP-seq enrichment at phzH (peak 64,211): 1,287.1
  ChIP-seq enrichment at rhlA operon (peak 1,648,391): 636
  ChIP-seq enrichment at rhlI (peak 1,651,804): 425
  ChIP-seq enrichment at rmlB operon (peak 6,082,366): 428.1
  ChIP-seq enrichment at rpsL operon (peak 754,615): 128.1
  ChIP-seq enrichment at tnpS, tnpT operon (peak 3,188,223): 255
